How the values were obtained:
[1] = biological target: T1, HSP90a protein (Homo sapiens, UniProt P07900); assay: HSP90α-binding fluorescent polarization (FP) assay, FITC-geldanamycin probe; conditions: FP competition with FITC-geldanamycin, 5 nM, 120 min at 25° C.
T1 construct: purchased BPS Bioscience 50298
Method: HSP90α-Binding Fluorescent Polarization (FP) Assay
Binding of test compounds to HSP90a protein was measured by fluorescent polarization (FP) using the HSP90a (N-terminal) Assay Kit (BPS Bioscience, #50298), following the manufacturer's instructions, except as noted. Fluorescently labeled HSP90-binding compounds, either the provided FITC-geldanamycin (5 nM final concentration) or RNK04010, a triazolone-based HSP90 binding small molecule labeled with BODIPY through a piperizine-phenyl linker (5 nM final concentration) were employed. A 2.5-fold serial dilution of each test compound ranging from 20 μM to 5.2 nM was assayed for binding to HSP90a. After the final step of adding HSP90a protein to each assay well, plates were mixed by brief shaking, incubated at 25° C. for 120 min for FITC-geldanamycin or 300 min for RNK04010, and fluorescence was measured using a PerkinElmer EnVision Plate Reader.

[2] = test system: NCI-H358 human non-small cell lung cancer; assay: NCI-H358 CCK-8 proliferation assay; format: cell-based; conditions: NCI-H358 cells, 72 hr
Outline: (§1)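 Compounds were tested as a 3-fold series from 20 μM down to 1.02 nM in CCK-8 absorbance assays. The lines used were NCI-H23 and NCI-H358, each with 1 KRAS(G12C) copy, and MIA PaCa-2 with 2 copies. Inhibition was derived relative to DMSO controls, with a no-cell blank subtracted.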

[3] = test system: MIA PaCa-2 human pancreatic carcinoma; assay: MIA PaCa-2 CCK-8 proliferation assay; format: cell-based; conditions: Homo sapiens, MIA PaCa-2, 72 h, MIA PaCa-2 cells
Outline: as §1

[4] = biological target: T1, HSP90a protein; assay: HSP90α-binding fluorescent polarization (FP) assay, BODIPY-labeled RNK04010 probe; conditions: FP competition with RNK04010 (BODIPY-labeled), 5 nM, 300 min at 25° C.
Outline: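 Binding was scored by fluorescence polarization after adding N-terminal HSP90a to wells holding probe and compound, with compound tested from 20 μM to 5.2 nM. Probe-dependent times at 25° C were 120 min for FITC-geldanamycin and 300 min for RNK04010-BODIPY, both at 5 nM final.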

IC50 [1] [nM] | EC50 [2] [nM] | EC50 [3] [nM] | IC50 [4] [nM] | SMILES
100 to 1000 | > 1000 |  |  | C=C(F)C(=O)N1CCN(c2nc(OC[C@@H]3CCCN3C(=O)C3CCN(Cc4ccc(-n5c(O)nnc5-c5cc(C(C)C)c(O)cc5O)cc4)CC3)nc3c2CCN(c2cccc4cccc(Cl)c24)C3)C[C@@H]1CC#N [Compound 144, 2-((S)-4-(7-(8-chloronaphthalen-1-yl)-2-(((S)-1-(1-(4-(3-(2,4-dihydroxy-5-isopropylphenyl)-5-hydroxy-4H-1,2,4-triazol-4-yl)benzyl)piperidine-4-carbonyl)pyrrolidin-2-yl)methoxy)-5,6,7,8-tetrahydropyrido[3,4-d]pyrimidin-4-yl)-1-(2-fluoroacryloyl)piperazin-2-yl)acetonitrile]
> 1000 | 100 to 1000 |  |  | CC(C)c1cc(-c2nnc(O)n2-c2ccc(CN3CCN(C4CCN(c5nc6c(c(N7CCN(C(=O)C(F)(F)F)[C@@H](CC#N)C7)n5)CCN(c5cccc7cccc(Cl)c57)C6)CC4)CC3)cc2)c(O)cc1O [Compound 136, (S)-2-(4-(7-(8-chloronaphthalen-1-yl)-2-(4-(4-(4-(3-(2,4-dihydroxy-5-isopropylphenyl)-5-hydroxy-4H-1,2,4-triazol-4-yl)benzyl)piperazin-1-yl)piperidin-1-yl)-5,6,7,8-tetrahydropyrido[3,4-d]pyrimidin-4-yl)-1-(2,2,2-trifluoroacetyl)piperazin-2-yl)acetonitrile]
100 to 1000 | > 1000 |  |  | CCC(=O)N1CCN(c2nc(NCCCNC(=O)C3CCN(Cc4ccc(-n5c(O)nnc5-c5cc(C(C)C)c(O)cc5O)cc4)CC3)nc3c2CCN(c2cccc4cccc(Cl)c24)C3)C[C@@H]1CC#N [Compound 134, (S)—N-(3-((7-(8-chloronaphthalen-1-yl)-4-(3-(cyanomethyl)-4-propionylpiperazin-1-yl)-5,6,7,8-tetrahydropyrido[3,4-d]pyrimidin-2-yl)amino)propyl)-1-(4-(3-(2,4-dihydroxy-5-isopropylphenyl)-5-hydroxy-4H-1,2,4-triazol-4-yl)benzyl)piperidine-4-carboxamide, trifluoroacetic acid]
100 to 1000 | 100 to 1000 |  |  | CCC(=O)N1CCN(c2nc(OC[C@@H]3CCCN3C(=O)C3CCN(Cc4ccc(-n5c(O)nnc5-c5cc(C(C)C)c(O)cc5O)cc4)CC3)nc3c2CCN(c2cccc4cccc(Cl)c24)C3)C[C@@H]1CC#N [Compound 140, 2-((S)-4-(7-(8-chloronaphthalen-1-yl)-2-(((S)-1-(1-(4-(3-(2,4-dihydroxy-5-isopropylphenyl)-5-hydroxy-4H-1,2,4-triazol-4-yl)benzyl)piperidine-4-carbonyl)pyrrolidin-2-yl)methoxy)-5,6,7,8-tetrahydropyrido[3,4-d]pyrimidin-4-yl)-1-propionylpiperazin-2-yl)acetonitrile]
100 to 1000 | 100 to 1000 |  |  | CCC(=O)N1CCN(c2nc(NCCC(=O)NCCc3ccc(CN4CCC(Cc5ccc(-n6c(C(=O)NCC(F)(F)F)nnc6-c6cc(C(C)C)c(O)cc6O)cc5)CC4)cc3)nc3c2CCN(c2cc(O)cc4ccccc24)C3)CC1 [Compound 149]
100 to 1000 | 100 to 1000 |  |  | CCC(=O)N1CCN(c2nc(OCC3CN(C(=O)C4CCN(Cc5ccc(-n6c(O)nnc6-c6cc(C(C)C)c(O)cc6O)cc5)CC4)C3)nc3c2CCN(c2cccc4cccc(Cl)c24)C3)C[C@@H]1CC#N [Compound 146, (S)-2-(4-(7-(8-chloronaphthalen-1-yl)-2-((1-(1-(4-(3-(2,4-dihydroxy-5-isopropylphenyl)-5-hydroxy-4H-1,2,4-triazol-4-yl)benzyl)piperidine-4-carbonyl)azetidin-3-yl)methoxy)-5,6,7,8-tetrahydropyrido[3,4-d]pyrimidin-4-yl)-1-propionylpiperazin-2-yl)acetonitrile]
< 100 | > 1000 |  |  | CCC(=O)N1CCN(c2nc(OC[C@@H]3CCN3C(=O)C3CCN(Cc4ccc(-n5c(O)nnc5-c5cc(C(C)C)c(O)cc5O)cc4)CC3)nc3c2CCN(c2cccc4cccc(Cl)c24)C3)C[C@@H]1CC#N [Compound 152, 2-((S)-4-(7-(8-chloronaphthalen-1-yl)-2-(((S)-1-(1-(4-(3-(2,4-dihydroxy-5-isopropylphenyl)-5-hydroxy-4H-1,2,4-triazol-4-yl)benzyl)piperidine-4-carbonyl)azetidin-2-yl)methoxy)-5,6,7,8-tetrahydropyrido[3,4-d]pyrimidin-4-yl)-1-propionylpiperazin-2-yl)acetonitrile, trifluoroacetic acid]
100 to 1000 | 100 to 1000 |  |  | CCC(=O)N1CCN(c2nc(N3CCC(CN4CCN(Cc5ccc(-n6c(O)nnc6-c6cc(CC)c(O)cc6O)cc5)CC4)CC3)nc3c2CCN(c2cccc4cccc(Cl)c24)C3)C[C@@H]1CC#N [Compound 133, (S)-2-(4-(7-(8-chloronaphthalen-1-yl)-2-(4-((4-(4-(3-(5-ethyl-2,4-dihydroxyphenyl)-5-hydroxy-4H-1,2,4-triazol-4-yl)benzyl)piperazin-1-yl)methyl)piperidin-1-yl)-5,6,7,8-tetrahydropyrido[3,4-d]pyrimidin-4-yl)-1-propionylpiperazin-2-yl)acetonitrile, trifluoroacetic acid]
> 1000 | > 1000 |  |  | C=C(F)C(=O)N1CCN(c2nc(N3CCN(Cc4ccc(-n5c(O)nnc5-c5cc(CC)c(O)cc5O)cc4)CC3)nc3c2CCN(c2cccc4cccc(Cl)c24)C3)C[C@@H]1CC#N [Compound 143, (S)-2-(4-(7-(8-chloronaphthalen-1-yl)-2-(4-(4-(3-(5-ethyl-2,4-dihydroxyphenyl)-5-hydroxy-4H-1,2,4-triazol-4-yl)benzyl)piperazin-1-yl)-5,6,7,8-tetrahydropyrido[3,4-d]pyrimidin-4-yl)-1-(2-fluoroacryloyl)piperazin-2-yl)acetonitrile]
100 to 1000 | > 1000 |  |  | C=C(F)C(=O)N1CCN(c2nc(N3CCC(CN4CCN(Cc5ccc(-n6c(O)nnc6-c6cc(CC)c(O)cc6O)cc5)CC4)CC3)nc3c2CCN(c2cccc4cccc(Cl)c24)C3)C[C@@H]1CC#N [Compound 135, (S)-2-(4-(7-(8-chloronaphthalen-1-yl)-2-(4-((4-(4-(3-(5-ethyl-2,4-dihydroxyphenyl)-5-hydroxy-4H-1,2,4-triazol-4-yl)benzyl)piperazin-1-yl)methyl)piperidin-1-yl)-5,6,7,8-tetrahydropyrido[3,4-d]pyrimidin-4-yl)-1-(2-fluoroacryloyl)piperazin-2-yl)acetonitrile]
100 to 1000 |  | > 1000 |  | C=C(F)C(=O)N1CCN(c2nc(OC[C@@H]3CCN(C(=O)c4ccc5c(c4)CN(C(=O)c4cc(C(C)C)c(O)cc4O)C5)C3)nc3c2CCN(c2cccc4cccc(Cl)c24)C3)C[C@@H]1CC#N [Compound 165, 2-((S)-4-(7-(8-chloronaphthalen-1-yl)-2-(((R)-1-(2-(2,4-dihydroxy-5-isopropylbenzoyl)isoindoline-5-carbonyl)pyrrolidin-3-yl)methoxy)-5,6,7,8-tetrahydropyrido[3,4-d]pyrimidin-4-yl)-1-(2-fluoroacryloyl)piperazin-2-yl)acetonitrile]
100 to 1000 | 100 to 1000 |  |  | C=C(F)C(=O)N1CCN(c2nc(N3CCC(CN4CCC(Cc5ccc(-n6c(O)nnc6-c6cc(C(C)C)c(O)cc6O)cc5)CC4)CC3)nc3c2CCN(c2cccc4cccc(Cl)c24)C3)C[C@@H]1CC#N [Compound 137, (S)-2-(4-(7-(8-chloronaphthalen-1-yl)-2-(4-((4-(4-(3-(2,4-dihydroxy-5-isopropylphenyl)-5-hydroxy-4H-1,2,4-triazol-4-yl)benzyl)piperidin-1-yl)methyl)piperidin-1-yl)-5,6,7,8-tetrahydropyrido[3,4-d]pyrimidin-4-yl)-1-(2-fluoroacryloyl)piperazin-2-yl)acetonitrile, acetic acid]
> 1000 |  | > 1000 | > 1000 | C=C(F)C(=O)N1CCN(c2nc(OC[C@@H]3CCN(C(=O)c4cc(CC)c(O)cc4O)C3)nc3c2CCN(c2cccc4cccc(Cl)c24)C3)C[C@@H]1CC#N [Compound 174, 2-((S)-4-(7-(8-chloronaphthalen-1-yl)-2-(((R)-1-(5-ethyl-2,4-dihydroxybenzoyl)pyrrolidin-3-yl)methoxy)-5,6,7,8-tetrahydropyrido[3,4-d]pyrimidin-4-yl)-1-(2-fluoroacryloyl)piperazin-2-yl)acetonitrile]
> 1000 |  | > 1000 | > 1000 | C=CC(=O)N1CCN(c2nc(OC[C@@H]3CCN(C(=O)c4ccc5c(c4)CN(C(=O)c4cc(C(C)C)c(OC)cc4O)C5)C3)nc3c2CCN(c2cccc4cccc(Cl)c24)C3)C[C@@H]1CC#N [Compound 173, 2-((S)-1-acryloyl-4-(7-(8-chloronaphthalen-1-yl)-2-(((R)-1-(2-(2-hydroxy-5-isopropyl-4-methoxybenzoyl)isoindoline-5-carbonyl)pyrrolidin-3-yl)methoxy)-5,6,7,8-tetrahydropyrido[3,4-d]pyrimidin-4-yl)piperazin-2-yl)acetonitrile]

— patent US20230391772A1, “METHODS AND COMPOSITIONS FOR TARGETED PROTEIN DEGRADATION” (Ranok Therapeutics (Hangzhou) Co. Ltd., priority 2020, published 2023)
